Results as given in patent publication US10689622B2, “Culture medium for proliferating stem cell, which contains sulfated compound” (AJINOMOTO CO., INC., priority 2012, dated 2020).

Key:
bFGF [1] = target: T1, bFGF (Homo sapiens, UniProt P09038); assay: Evaluation of bFGF stabilization in Lonza serum-free medium (ELISA); format: biochemical; conditions: for bFGF concentration relative to that of 4° C. control (ELISA): Lonza serum-free medium, 37° C. for 7 days; for effectiveness ELISA: effectiveness in ELISA evaluation of mesenchymal stem cells (medium), 4° C. control ratio
T1 construct: purchased Lonza (via TAKARA BIO INC.) Ser. No. 00/190,632
T1 sequence (P09038 143-288): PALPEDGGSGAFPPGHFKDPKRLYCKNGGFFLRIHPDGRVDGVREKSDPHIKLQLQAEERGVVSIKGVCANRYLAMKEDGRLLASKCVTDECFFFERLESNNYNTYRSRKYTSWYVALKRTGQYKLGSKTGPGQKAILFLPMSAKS
Description: (§1) A test compound was dissolved in phosphate buffered saline, and diluted 10-fold with a serum-free medium to adjust to the concentrations shown in Table 4 (test sample). The test sample was left standing in a tightly sealed Falcon tube at 37° C. for 7 days (Tables 5 to 8-2) or 3 days (Table 8-3), and the bFGF concentration was quantified by ELISA measurement. A phosphate buffered saline without a test compound was diluted 10-fold with a serum-free medium, and left standing at 37° C. or 4° C. for 7 days or 3 days, and used as a control.
(§2) A commercially available measurement kit (human bFGF ELISA kit, ELH-bFGF-001, Ray Biotech) was used for quantification of bFGF in the medium. The measurement procedures followed the protocol attached to the kit. The bFGF concentration of the serum-free medium was calculated from the analytical curve (conversion formula) drawn from the absorbance of an analytical curve standard solution. The evaluation criteria of Tables 5-8 are as follows:
as §1, with “Table 13” for “Table 4”, “7 days,” for “7 days (Tables 5 to 8-2) or 3 days (Table 8-3),”, “7” for “7 days or 3”
as §2, with “Table 13” for “Tables 5-8”, “follows: […]” for “follows:”

bFGF [2] = target: T1, bFGF; assay: Evaluation of bFGF stabilization in Essential 8 medium (ELISA); format: biochemical; conditions: 37° C. for 7 days
Description: as §2
(§3) A test compound was dissolved in phosphate buffered saline, and diluted 10-fold with a serum-free medium to adjust the concentration shown in Table 4 (test sample). The test sample was left standing in a tightly sealed Falcon tube at 37° C. for 7 days, and the bFGF concentration was quantified by ELISA measurement. A phosphate buffered saline without a test compound was diluted 10-fold with Essential 8 medium or ReproFF2 medium, and left standing at 37° C. or 4° C. for 7 days, and used as a control.
as §2, with “Table 13” for “Tables 5-8”
as §3, with “Table 12” for “Table 4”

[3] = Measurement of content level of sulfur in test compound (ICP); format: physicochemical; conditions: ICPS-8100, evaluation samples containing 0.01 wt % test compound
Excerpt: (§4) The content level of sulfur in the sulfated saccharide is generally not less than 5 wt %, preferably not less than 10 wt %, more preferably not less than 15 wt %, and the upper limit is generally not more than 40 wt %, preferably not more than 35 wt %, more preferably not more than 30 wt %. […] Here, the content level of sulfur is a proportion in wt % of sulfur derived only from the sulfate group in sulfated saccharides, which can be measured by a method known in the field (e.g., rhodizonate method, elemental analysis or luminescent spectral analysis).
as §4, with “polymer” for “saccharide”, “wt” for “wt %, preferably not more than 35 wt %, more preferably not more than 30 wt”, “in” for “derived only from”, “the” for “the sulfate group in”, “polymer,” for “saccharides,”, “such as” for “(e.g.,”
The relationship between the content level of sulfur in a test compound (sulfur content) and the cell proliferation promoting effect was examined. The sulfur content was measured using ICPS-8100 manufactured by SHIMADZU CORPORATION and analyzed using ICPS-8000 series Ver1.03. As the reference standard of sulfur, the standard for ICP-MS manufactured by Accu Standard was used. Sulfur reference standard solutions (0, 1, 10, 30, 50 ppm) were prepared, and the sulfur content of the evaluation samples containing 0.01 wt % test compound was measured by an analytical curve method.

[4] = test system: Human bone marrow-derived mesenchymal stem cells; assay: Mesenchymal stem cell proliferation system (cell number by DNA quantification); conditions: growth of mesenchymal stem cell, control ratio
Description: Human bone marrow-derived mesenchymal stem cells (Lonza, Human Mesenchymal Stem Cell) cultured in mesenchymal stem cell-dedicated medium (Lonza, MSCGM) or Dulbecco's Modified Eagle Medium (Invitrogen, GIBCO D-MEM) containing inactivated fetal bovine serum (Invitrogen, GIBCO FBS) and penicillin-streptomycin (Sigma-Aldrich Co. LLC.) were cultured in exchanged Lonza serum-free medium. The mesenchymal stem cells thus-acclimated to serum-free culture were suspended in Lonza serum-free medium, and seeded on a 24 well culture plate (Nippon Becton Dickinson Company, Ltd., Falcon culture plate) at 20,000 cells/well or a 6 well culture plate (Nippon Becton Dickinson Company, Ltd., Falcon culture plate) at 50,000 cells/well. Then, a test compound solution after filter sterilization and adjustment to a given concentration was added, and the cells were cultured in an incubator (Thermo Scientific, Forma incubator) under the 5% CO2/37° C. conditions for 7 to 8 days. When the medium exchange was necessary, the medium was exchanged 2 to 3 days after the seeding. In this case, the test compound solution was also added again in the same manner as in seeding. In this case, various compound solutions were added again in the same manner as in seeding. After culturing for 7 to 8 days, the medium was removed and DNA quantification was performed. As a control, the cells were cultured in the same manner in a medium without a test compound and added with phosphate buffered saline.
The medium in the 24 well culture plate was removed, and the cells were washed with phosphate buffered saline. The sodium lauryl sulfate solution (500 μl/well) was added, and the mixture was left standing at 37° C. for 4 hours. The sodium lauryl sulfate solution (1.0 ml) was also added to a cell pellet with a known cell number, and the mixture was left standing at 37° C. for 4 hours. As for the cells in the 24 well culture plate, a part (50 μl) of the lysate was transferred to a 96 well black microplate. The solution used for treating the cell pellets was successively diluted with sodium lauryl sulfate solution and used as solutions for drawing an analytical curve. Also, a part (50 μl) of the solutions for drawing an analytical curve was each transferred to the 96 well black microplate. […] The fluorescence was measured by a microplate reader (excitation wavelength: 355 nm, measurement wavelength: 460 nm) within 5 minutes from the addition. The cell number of the 24 well cell culture plate was calculated from the analytical curve drawn (conversion formula). The evaluation criteria were as follows.

effectiveness ELISA (bFGF [1])	concentration showing a suppressive effect on a decrease in the bFGF concentration of the medium (bFGF [2])	sulfur content Found (inorganic analysis) [3] [wt %]	Compound	bFGF concentration relative to that of 4° C. control (ELISA) (bFGF [1]; test compound 25 ng/ml)	bFGF concentration relative to that of 4° C. control (ELISA) (bFGF [1]; test compound 250 ng/ml)	bFGF concentration relative to that of 4° C. control (ELISA) (bFGF [1]; test compound 25 μg/ml)	bFGF concentration relative to that of 4° C. control (ELISA) (bFGF [1]; test compound 250 μg/ml)	bFGF concentration relative to that of 4° C. control (ELISA) (bFGF [2]; test compound 250 pg/ml)	bFGF concentration relative to that of 4° C. control (ELISA) (bFGF [2]; test compound 25 ng/ml)	bFGF concentration relative to that of 4° C. control (ELISA) (bFGF [2]; test compound 250 ng/ml)	bFGF concentration relative to that of 4° C. control (ELISA) (bFGF [2]; test compound 25 μg/ml)	bFGF concentration relative to that of 4° C. control (ELISA) (bFGF [2]; test compound 250 μg/ml)	effectiveness cells [4]
+++ (+++ 70%<)	not less than 25 μg/ml	19	O=S(=O)([O-])OC1C(OS(=O)(=O)[O-])C(OS(=O)(=O)[O-])C(OS(=O)(=O)[O-])C(OS(=O)(=O)[O-])C1OS(=O)(=O)[O-].[K+].[K+].[K+].[K+].[K+].[K+] (stereo not shown) [myo-inositol 6SO3K]	x (bFGF concentration was less than 10% relative to that of 4 °C control)	x (bFGF concentration was less than 10% relative to that of 4 °C control)	+ (bFGF concentration was not less than 30% and less than 50% relative to that of 4 °C control)	++ (bFGF concentration was not less than 50% and less than 70% relative to that of 4 °C control)	x (bFGF concentration was less than 10% relative to that of 4 °C control)	x (bFGF concentration was less than 10% relative to that of 4 °C control)	x (bFGF concentration was less than 10% relative to that of 4 °C control)	+++ (bFGF concentration was not less than 70% relative to that of 4 °C control)	+++ (bFGF concentration was not less than 70% relative to that of 4 °C control)	–
+ (+ 30%<)	not less than 2.5 mg/ml	23	glucose SO3Na	x (bFGF concentration was less than 10% relative to that of 4 °C control)	x (bFGF concentration was less than 10% relative to that of 4 °C control)	x (bFGF concentration was less than 10% relative to that of 4 °C control)	− (bFGF concentration was not less than 10% and less than 30% relative to that of 4 °C control)	x (bFGF concentration was less than 10% relative to that of 4 °C control)	x (bFGF concentration was less than 10% relative to that of 4 °C control)	x (bFGF concentration was less than 10% relative to that of 4 °C control)	+++ (bFGF concentration was not less than 70% relative to that of 4 °C control)	+++ (bFGF concentration was not less than 70% relative to that of 4 °C control)	–
+ (+ 30%<)	–	23	glycerol SO3Na	x (bFGF concentration was less than 10% relative to that of 4 °C control)	x (bFGF concentration was less than 10% relative to that of 4 °C control)	x (bFGF concentration was less than 10% relative to that of 4 °C control)	x (bFGF concentration was less than 10% relative to that of 4 °C control)	–	–	–	–	–	–
+++ (+++ 70%<)	not less than 250 μg/ml	18	stachyose SO3Na	x (bFGF concentration was less than 10% relative to that of 4 °C control)	− (bFGF concentration was not less than 10% and less than 30% relative to that of 4 °C control)	+++ (bFGF concentration was not less than 70% relative to that of 4 °C control)	+++ (bFGF concentration was not less than 70% relative to that of 4 °C control)	x (bFGF concentration was less than 10% relative to that of 4 °C control)	x (bFGF concentration was less than 10% relative to that of 4 °C control)	x (bFGF concentration was less than 10% relative to that of 4 °C control)	x (bFGF concentration was less than 10% relative to that of 4 °C control)	++ (bFGF concentration was not less than 50% and less than 70% relative to that of 4 °C control)	–
++ (++ 50%<)	not less than 2.5 μg/ml	14	α-cyclodextrin SO3Na [α-CD•SO3Na]	x (bFGF concentration was less than 10% relative to that of 4 °C control)	+ (bFGF concentration was not less than 30% and less than 50% relative to that of 4 °C control)	− (bFGF concentration was not less than 10% and less than 30% relative to that of 4 °C control)	+ (bFGF concentration was not less than 30% and less than 50% relative to that of 4 °C control)	x (bFGF concentration was less than 10% relative to that of 4 °C control)	x (bFGF concentration was less than 10% relative to that of 4 °C control)	x (bFGF concentration was less than 10% relative to that of 4 °C control)	+++ (bFGF concentration was not less than 70% relative to that of 4 °C control)	+++ (bFGF concentration was not less than 70% relative to that of 4 °C control)	–

Compound	effectiveness ELISA (bFGF [1])	concentration showing a suppressive effect on a decrease in the bFGF concentration of the medium (bFGF [2])	sulfur content Found (inorganic analysis) [3] [wt %]	bFGF concentration relative to that of 4° C. control (ELISA) (bFGF [1]; test compound 25 ng/ml)	bFGF concentration relative to that of 4° C. control (ELISA) (bFGF [1]; test compound 250 ng/ml)	bFGF concentration relative to that of 4° C. control (ELISA) (bFGF [1]; test compound 25 μg/ml)	bFGF concentration relative to that of 4° C. control (ELISA) (bFGF [1]; test compound 250 μg/ml)	bFGF concentration relative to that of 4° C. control (ELISA) (bFGF [2]; test compound 250 pg/ml)	bFGF concentration relative to that of 4° C. control (ELISA) (bFGF [2]; test compound 25 ng/ml)	bFGF concentration relative to that of 4° C. control (ELISA) (bFGF [2]; test compound 250 ng/ml)	bFGF concentration relative to that of 4° C. control (ELISA) (bFGF [2]; test compound 25 μg/ml)	bFGF concentration relative to that of 4° C. control (ELISA) (bFGF [2]; test compound 250 μg/ml)	effectiveness cells [4]
xylitol SO3Na	+++ (+++ 70%<)	–	25	x (bFGF concentration was less than 10% relative to that of 4 °C control)	x (bFGF concentration was less than 10% relative to that of 4 °C control)	x (bFGF concentration was less than 10% relative to that of 4 °C control)	++ (bFGF concentration was not less than 50% and less than 70% relative to that of 4 °C control)	–	–	–	–	–	◯ (◯ not leas than 100%)
